Results taken from the supplement of paper PMC4862054.

Assays:
Test in all cases: drug sensitivity score (DSS), CellTiter-Blue viability (DSS (AUC-based score)); higher = stronger viability inhibition; extreme values may be limits of the assay
Conditions in all cases: incubation time: 72 h
MDA-MB-231 = test system: MDA-MB-231
Summary of the method: (§1)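 A 72 h incubation followed seeding of breast cancer cell lines (20 µl suspension) into 384-well plates holding compound in a 5- or 9-concentration series. CellTiter-Blue, 2.5 µl per well, was incubated 2 h at 37 °C, and fluorescence was measured at 560/590 nm. Normalisation on every plate used 0.1 % DMSO and a positive kill control. From the fitted dose-response curve, the area under the curve was taken as the drug sensitivity score.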

MDA-MB-453 = test system: MDA-MB-453
Summary of the method: as §1

BT-549 = test system: BT-549
Summary of the method: as §1

BT-474 = test system: BT-474
Summary of the method: as §1

HCC1599 = test system: HCC1599
Summary of the method: as §1

DU-4475 = test system: DU-4475
Summary of the method: as §1

HDQ-P1 = test system: HDQ-P1
Summary of the method: as §1

MFM-223 = test system: MFM-223
Summary of the method: as §1

CAL-148 = test system: CAL-148
Summary of the method: as §1

MDA-MB-436 = test system: MDA-MB-436
Summary of the method: as §1

Row | Compound | drug sensitivity score (MDA-MB-231) | drug sensitivity score (MDA-MB-453) | drug sensitivity score (BT-549) | drug sensitivity score (BT-474) | drug sensitivity score (HCC1599) | drug sensitivity score (DU-4475) | drug sensitivity score (HDQ-P1) | drug sensitivity score (MFM-223) | drug sensitivity score (CAL-148) | drug sensitivity score (MDA-MB-436)
1 | COc1cccc2c1C(=O)c1c(O)c3c(c(O)c1C2=O)C[C@@](O)(C(C)=O)C[C@@H]3O[C@H]1C[C@H](N)[C@H](O)[C@H](C)O1 [Daunorubicin] | 13.5 | 3.7 | 9.47 | 7.7 | 1.88 | 14 | 5.31 | 2.14 | 13 | 10.8
2 | CC(C)C[C@H](NC(=O)[C@H](Cc1ccccc1)NC(=O)c1cnccn1)B(O)O [Bortezomib] | 28.8 | 22.7 | 24.3 | 18.8 | 7.18 | 20.9 | 27.7 | 22.5 | 17.9 | 16.2
3 | O=C(c1ccc(OCCN2CCCCC2)cc1)c1c(-c2ccc(O)cc2)sc2cc(O)ccc12 [Raloxifene] | 0 | 1.25 | 0 | 0 | 0 | 0 | 0 | 0 | 0 | 0
4 | CC(=O)O[C@H]1C(=O)[C@@]2(C)[C@H]([C@H](OC(=O)c3ccccc3)[C@]3(O)C[C@H](OC(=O)[C@H](O)[C@@H](NC(=O)c4ccccc4)c4ccccc4)C(C)=C1C3(C)C)[C@]1(OC(C)=O)CO[C@@H]1C[C@@H]2O [Paclitaxel] | 21.4 | 22.2 | 24.7 | 19 | 3.04 | 18.3 | 20.9 | 15 | 21.9 | 15.8
5 | COc1c(C)cnc(Cn2cnc3c(Cl)nc(N)nc32)c1C [BIIB021] | 15.8 | 24.8 | 18.8 | 18.8 | 8.11 | 22 | 12.8 | 18.6 | 19.3 | 11.9
6 | C#Cc1cccc(Nc2ncnc3cc(OC)c(OCCCCCCC(=O)NO)cc23)c1 [CUDC-101] | 12 | 19.9 | 8.79 | 14.8 | 15.3 | 10.6 | 14.7 | 15.6 | 12.2 | 10.6
7 | O=P(O)(NCCCl)NCCCl [Ifosfamide mustard] | 0 | 0 | 0 | 0 | 0 | 0 | 0 | 0 | 0 | 0
8 | COC1=C2C[C@@H](C)C[C@H](OC)[C@H](O)[C@@H](C)/C=C(\C)[C@H](OC(N)=O)[C@@H](OC)/C=C\C=C(/C)C(=O)NC(=CC1=O)C2=O [Geldanamycin] | 24.2 | 23 | 23.4 | 22.7 | 14.7 | 22.5 | 20.1 | 21.8 | 18.2 | 25
9 | C[C@@H]1C=C2C(=O)O[C@@H]3CC[C@H](C1)[C@]23O [Galiellalactone] | 9.39 | 8.97 | 10.4 | 2.65 | 0 | 0 | 2.82 | 2.28 | 4.5 | 6.26
10 | Cn1cnc2c(F)c(Nc3ccc(Br)cc3F)c(C(=O)NOCCO)cc21 [MEK-162] | 4.22 | 0 | 0 | 0 | 2.32 | 16 | 0 | 0 | 0 | 0
11 | CCCC(CCC)C(=O)O [Valproic acid] | 0 | 0 | 0 | 0 | 0 | 0 | 0 | 0 | 0 | 0
12 | O=c1[nH]cc(F)c(=O)[nH]1 [Fluorouracil] | 1.96 | 1.33 | 2.25 | 0 | 1.41 | 1.34 | 0 | 0 | 4.79 | 1.93
13 | CN1CCN(c2ccc3nc(-c4c(N)c5c(F)cccc5[nH]c4=O)[nH]c3c2)CC1 [Dovitinib] | 0 | 0 | 0 | 0 | 0 | 0 | 0 | 0 | 0 | 0
14 | C[C@@]1(C(=O)Nc2ccc(F)nc2)CCCN1c1nc(Nc2cc(C3CC3)n[nH]2)c2cccn2n1 | 11 | 5.98 | 6.82 | 0 | 11.5 | 9.27 | 16 | 10.1 | 6.09 | 2.82
15 | COC1=CC(c2cc3ccccc3[nH]2)=N/C1=C\c1[nH]c(C)cc1C [Obatoclax] | 21 | 13.8 | 16.4 | 15.2 | 7.48 | 2.24 | 15.4 | 7.09 | 4.47 | 13.7
16 | CS(=O)(=O)OCCCCOS(C)(=O)=O [Busulfan] | 0 | 0 | 0 | 0 | 0 | 0 | 0 | 0 | 0 | 0
17 | COC(=O)C[C@](O)(CCCC(C)(C)O)C(=O)O[C@@H]1C(OC)=C[C@]23CCCN2CCc2cc4c(cc2[C@H]13)OCO4 [Omacetaxine] | 27.8 | 28.2 | 28.3 | 20.5 | 24.8 | 38.1 | 30.7 | 26.3 | 31.6 | 26.7
18 | CCS(=O)(=O)c1cccc(-c2cc(C(=O)NC3CCN(C)CC3)c(C)c3[nH]c4ncc(C)cc4c23)c1 [TAK-901] | 9 | 10.7 | 8.46 | 0 | 4.14 | 3.52 | 5.84 | 10.3 | 0 | 1.92
